Experimental data from paper PMC6117411, “De novo Transcriptome Characterization of Rhodomyrtus tomentosa Leaves and Identification of Genes Involved in α/β-Pinene and β-Caryophyllene Biosynthesis” (Frontiers in Plant Science, 2018).

What was measured:
Assay type in all cases: biochemical
Conditions in all cases: 25 mM HEPES pH 7.0, 10 mM MgCl2, 5 mM DTT, 10 mM substrate, 30 C, 30 min
RtTPS3 [1] = target: T1, RtTPS3 (Rhodomyrtus tomentosa, UniProt A0A385J6Y9); assay: product formation by GC-MS
T1 construct: gene TPS3; 52 residues upstream of RRX8W motif; TPS-a subfamily
T1 sequence (A0A385J6Y9 1-597): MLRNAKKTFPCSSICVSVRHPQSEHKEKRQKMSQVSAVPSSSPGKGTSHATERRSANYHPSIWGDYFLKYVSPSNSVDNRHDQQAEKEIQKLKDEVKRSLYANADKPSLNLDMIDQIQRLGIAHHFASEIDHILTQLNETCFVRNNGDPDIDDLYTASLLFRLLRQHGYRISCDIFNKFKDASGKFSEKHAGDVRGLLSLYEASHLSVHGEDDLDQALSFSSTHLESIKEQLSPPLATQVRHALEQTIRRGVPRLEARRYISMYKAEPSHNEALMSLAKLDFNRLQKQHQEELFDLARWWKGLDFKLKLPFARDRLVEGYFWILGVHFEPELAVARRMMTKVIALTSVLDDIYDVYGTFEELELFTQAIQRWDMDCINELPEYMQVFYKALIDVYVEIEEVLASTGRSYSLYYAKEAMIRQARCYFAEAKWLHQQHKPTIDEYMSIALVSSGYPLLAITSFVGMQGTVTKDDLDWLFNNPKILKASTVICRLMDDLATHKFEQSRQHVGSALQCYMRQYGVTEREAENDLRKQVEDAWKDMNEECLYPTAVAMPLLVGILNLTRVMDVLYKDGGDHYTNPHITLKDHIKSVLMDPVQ

RtTPS1 [2] = target: T2, RtTPS1 (Rhodomyrtus tomentosa, UniProt A0A385J6X8); assay: product formation by GC-MS
T2 construct: gene TPS1; 38 residues upstream of RRX8W motif; TPS-b subfamily
T2 sequence (A0A385J6X8 1-581): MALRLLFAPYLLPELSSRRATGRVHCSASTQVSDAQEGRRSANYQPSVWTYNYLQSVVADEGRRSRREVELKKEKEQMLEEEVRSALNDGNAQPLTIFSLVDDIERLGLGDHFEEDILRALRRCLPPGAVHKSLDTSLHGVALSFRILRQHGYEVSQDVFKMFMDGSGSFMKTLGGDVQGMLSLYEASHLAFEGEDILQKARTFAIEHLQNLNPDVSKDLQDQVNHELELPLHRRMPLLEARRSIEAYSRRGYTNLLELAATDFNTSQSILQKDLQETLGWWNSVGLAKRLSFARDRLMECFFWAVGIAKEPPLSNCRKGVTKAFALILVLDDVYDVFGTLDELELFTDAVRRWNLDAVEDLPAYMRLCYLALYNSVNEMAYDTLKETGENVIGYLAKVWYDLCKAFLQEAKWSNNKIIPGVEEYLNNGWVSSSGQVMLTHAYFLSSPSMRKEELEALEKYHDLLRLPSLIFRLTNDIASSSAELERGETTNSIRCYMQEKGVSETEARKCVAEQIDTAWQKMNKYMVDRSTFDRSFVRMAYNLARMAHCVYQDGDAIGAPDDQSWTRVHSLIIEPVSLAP

RtTPS3 [3] = target: T1, RtTPS3; assay: product formation by GC-MS and chiral GC-FID
RtTPS4 = target: T3, RtTPS4 (Rhodomyrtus tomentosa, UniProt A0A385J6Y5); assay: product formation by GC-MS and chiral GC-FID
T3 construct: gene TPS4; 48 residues upstream of RRX8W motif; TPS-a subfamily
T3 sequence (A0A385J6Y5 1-594): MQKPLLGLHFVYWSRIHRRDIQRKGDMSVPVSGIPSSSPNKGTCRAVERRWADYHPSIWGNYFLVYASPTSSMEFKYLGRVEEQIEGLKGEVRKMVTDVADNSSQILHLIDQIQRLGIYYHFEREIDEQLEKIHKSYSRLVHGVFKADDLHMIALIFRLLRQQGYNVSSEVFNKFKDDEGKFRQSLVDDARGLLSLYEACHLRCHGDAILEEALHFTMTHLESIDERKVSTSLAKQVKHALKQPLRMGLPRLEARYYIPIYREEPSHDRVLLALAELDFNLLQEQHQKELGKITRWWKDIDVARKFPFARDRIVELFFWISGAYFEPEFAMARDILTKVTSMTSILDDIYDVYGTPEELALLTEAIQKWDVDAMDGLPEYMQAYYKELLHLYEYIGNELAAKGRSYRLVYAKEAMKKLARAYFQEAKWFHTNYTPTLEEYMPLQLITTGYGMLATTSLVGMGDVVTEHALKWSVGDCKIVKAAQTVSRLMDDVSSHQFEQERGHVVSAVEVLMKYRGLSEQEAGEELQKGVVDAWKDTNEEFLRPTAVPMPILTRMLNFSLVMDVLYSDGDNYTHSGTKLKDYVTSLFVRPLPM

RtTPS2 = target: T4, RtTPS2 (Rhodomyrtus tomentosa, UniProt A0A385J6Y6); assay: product formation by GC-MS and chiral GC-FID
T4 construct: gene TPS2; TPS-b subfamily
T4 sequence (A0A385J6Y6 1-599): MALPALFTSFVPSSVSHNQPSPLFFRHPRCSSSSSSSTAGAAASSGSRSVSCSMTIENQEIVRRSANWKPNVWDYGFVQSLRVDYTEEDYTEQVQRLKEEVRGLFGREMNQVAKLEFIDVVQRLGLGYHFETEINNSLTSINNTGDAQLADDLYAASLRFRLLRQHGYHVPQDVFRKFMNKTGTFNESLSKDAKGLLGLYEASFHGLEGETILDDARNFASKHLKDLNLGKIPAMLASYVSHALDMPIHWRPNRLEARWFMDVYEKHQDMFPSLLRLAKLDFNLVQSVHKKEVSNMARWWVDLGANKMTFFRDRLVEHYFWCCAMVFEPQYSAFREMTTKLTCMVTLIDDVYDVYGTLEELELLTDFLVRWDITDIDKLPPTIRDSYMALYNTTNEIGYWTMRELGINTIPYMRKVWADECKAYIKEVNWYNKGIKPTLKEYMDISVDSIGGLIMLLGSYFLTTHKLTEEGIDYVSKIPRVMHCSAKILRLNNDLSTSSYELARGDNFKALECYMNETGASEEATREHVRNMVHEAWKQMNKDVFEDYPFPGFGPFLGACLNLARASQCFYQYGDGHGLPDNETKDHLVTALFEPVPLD

RtTPS1 [4] = target: T2, RtTPS1; assay: product formation by GC-MS and chiral GC-FID

Structure (SMILES)	product formation by GC-MS (RtTPS3 [1])	product formation by GC-MS (RtTPS1 [2])	product formation by GC-MS and chiral GC-FID (RtTPS3 [3])	product formation by GC-MS and chiral GC-FID (RtTPS4)	product formation by GC-MS and chiral GC-FID (RtTPS2)	product formation by GC-MS and chiral GC-FID (RtTPS1 [4])
CC(C)=CCC/C(C)=C/CC/C(C)=C/COP(=O)(O)OP(=O)(O)O [FPP]	RtTPS1 and RtTPS3 are also active with FPP, producing β-caryophyllene	RtTPS1 and RtTPS3 are also active with FPP, producing β-caryophyllene	–	–	–	–
CC(C)=CCC/C(C)=C/COP(=O)(O)OP(=O)(O)O [GPP]	–	–	RtTPS1-4 produce mainly (+)-α-pinene and (+)-β-pinene	RtTPS1-4 produce mainly (+)-α-pinene and (+)-β-pinene	RtTPS1-4 produce mainly (+)-α-pinene and (+)-β-pinene	RtTPS1-4 produce mainly (+)-α-pinene and (+)-β-pinene
